According to paper PMC10079235 (PLOS Neglected Tropical Diseases, 2023):
pEC50: −log10 of the molar value. Counter-ions that a name gives are not always drawn. Like-named read-outs stand apart in the source and are kept apart here.

Assays:
HCT-8/MDR1 cells = assay: MTS cytotoxicity (drug tolerance) assay; settings: for TC50: MDR1 cells, no drug selection, MTS assay
Cryptosporidium parvum = assay: Anti-cryptosporidial efficacy assay (44-h infection/qRT-PCR); settings: for pEC50: Cryptosporidium parvum; for On-target (Eon) rate at EC50 / Off-target (Eoff) rate at EC50: MDR1(PTX) cell model; for On-target (Eon) rate at EC50: Eq 2; for Off-target (Eoff) rate at EC50: from Pct changes of EC50 and TC50 (Eq 1); for Action on parasite target (on-target) conclusion: MDR1-transgenic host cell model; for Eoff, proportion of off-parasite-target effect / Eon, proportion of on-parasite-target effect: MDR1(PTX) vs. NC model, Eq 3 and 4
HCT-8/WT(PTX) cells = assay: MTS cytotoxicity (drug tolerance) assay; settings: for TC50: human, 41 h
Procedure: (§1) Host cell drug tolerance to specified inhibitors was evaluated by 3-(4,5-dimethylthiazol-2-yl)-5-(3-carboxymethoxyphenyl)-2-(4-sulfophenyl)-2H-tetrazolium (MTS) assay. WT and transgenic host cells were seeded in 96-well plates (10,000 cells/well) and cultured for 24 h, followed by the addition of specified compounds at serially diluted concentrations and continued culture for 41 h. After 3 washes with serum-free medium, MTS solution (Saint-Bio, Shanghai, China) was added into the plates (20 μL/well) and incubated at 37°C for 2 h. Optical density at 490 nm (OD490) was measured using a Synergy LX multi-mode reader (BioTek, Winooski, VT). Drug tolerance was indicated by half-maximal cytotoxic concentrations (TC50 values) calculated by nonlinear regression using 4PL model. Selectivity index (SI) for each compound was determined by the ratio between TC50 and EC50 values (SI = TC50/EC50).
(§2) Surviving cells were allowed to recover in drug-free medium for 3–5 d to near confluence (round 1). The selection/recovery cycle were repeated once (round 2). […] The resulting cell lines after PTX or NTZ selection were designated as WT(PTX), NC(PTX) and MDR1(PTX), or WT(NTZ), NC(NTZ) and MDR1(NTZ), respectively (Tables 1 and S2).

HCT-8/NC(PTX) cells = assay: MTS cytotoxicity (drug tolerance) assay; settings: for TC50: human, 41 h
Procedure: as §1, §2

HCT-8/MDR1(NTZ) cells = assay: MTS cytotoxicity (drug tolerance) assay; settings: for TC50: MDR1(NTZ) cells
Procedure: as §1, §2

HCT-8/WT cells = assay: MTS cytotoxicity (drug tolerance) assay; settings: for TC50: WT cells, no drug selection, MTS assay
Procedure: as §1

HCT-8/MDR1(PTX) cells = settings: for Pct change of TC50 (vs NC): MDR1(PTX) vs NC cells; for TC50: MDR1(PTX) cells
Procedure: as §1, §2

HCT-8/WT(NTZ) cells = assay: MTS cytotoxicity (drug tolerance) assay; settings: for TC50: human, 41 h
Procedure: as §1
(§3) Surviving cells were allowed to recover in drug-free medium for 3–5 d to near confluence (round 1). The selection/recovery cycle were repeated once (round 2). […] Finally, all cells were cultured at the final selection concentrations of PTX or NTZ for ≥7 d, followed by culture in drug-free medium for 14 d. At this time point, cells were used for cytotoxicity and efficacy assays or cryopreserved in a liquid nitrogen tank. The resulting cell lines after PTX or NTZ selection were designated as WT(PTX), NC(PTX) and MDR1(PTX), or WT(NTZ), NC(NTZ) and MDR1(NTZ), respectively (Tables 1 and S2).

HCT-8/NC(NTZ) cells = assay: MTS cytotoxicity (drug tolerance) assay; settings: for TC50: human, 41 h
Procedure: as §1, §3

HCT-8/NC cells = settings: human, 41 h
[1] = MDR1, read-out: Antiparasitic efficacy (EC50), C. parvum cultured in MDR1(PTX) host cells
[2] = read-out: Antiparasitic efficacy (EC50), C. parvum cultured in NC host cells
[3] = read-out: Antiparasitic efficacy (EC50), C. parvum cultured in WT host cells

SMILES	TC50 (HCT-8/MDR1 cells) [µM]	pEC50 (Cryptosporidium parvum; [1])	pEC50 (Cryptosporidium parvum; [2])	pEC50 (Cryptosporidium parvum; [3])	Off-target (Eoff) rate at EC50 (Cryptosporidium parvum) [%]	Action on parasite target (on-target) conclusion (Cryptosporidium parvum)	Eoff, proportion of off-parasite-target effect (Cryptosporidium parvum; at EC10) [%]	Eoff, proportion of off-parasite-target effect (Cryptosporidium parvum; at EC20) [%]	Eoff, proportion of off-parasite-target effect (Cryptosporidium parvum; at EC30) [%]	Eoff, proportion of off-parasite-target effect (Cryptosporidium parvum; at EC40) [%]	Eoff, proportion of off-parasite-target effect (Cryptosporidium parvum; at EC50) [%]	Eoff, proportion of off-parasite-target effect (Cryptosporidium parvum; at EC60) [%]	Eoff, proportion of off-parasite-target effect (Cryptosporidium parvum; at EC80) [%]	Eoff, proportion of off-parasite-target effect (Cryptosporidium parvum; at EC90) [%]	TC50 (HCT-8/WT(PTX) cells) [µM]	TC50 (HCT-8/MDR1(NTZ) cells; after selection by NTZ) [µM]	TC50 (HCT-8/WT cells) [µM]	TC50 (HCT-8/WT(NTZ) cells) [µM]	TC50 (HCT-8/NC(NTZ) cells) [µM]	TC50 (HCT-8/NC cells) [µM]	other results
COc1cccc2c1C(=O)c1c(O)c3c(c(O)c1C2=O)C[C@@](O)(C(=O)CO)C[C@@H]3O[C@H]1C[C@H](N)[C@H](O)[C@H](C)O1 [Doxorubicin, Doxorubicin HCl]	6.67	5.71	5.92	5.93	45.5	partially on-target	26.90	32.80	37.30	41.30	45.3	49.60	61.40	72.90	4.24	6.90	4.03	4.18	4.21	4.34	On-target (Eon) rate at EC50 (Cryptosporidium parvum): 54.5%; On-target (Eon) rate at EC50 (Cryptosporidium parvum; listed as DXR): 54.5%; Eon, proportion of on-parasite-target effect (Cryptosporidium parvum; at EC10): 73.10%; Eon, proportion of on-parasite-target effect (Cryptosporidium parvum; at EC20): 67.20%; Eon, proportion of on-parasite-target effect (Cryptosporidium parvum; at EC30): 62.70%; Eon, proportion of on-parasite-target effect (Cryptosporidium parvum; at EC40): 58.70%; Eon, proportion of on-parasite-target effect (Cryptosporidium parvum; at EC50): 54.7%; Eon, proportion of on-parasite-target effect (Cryptosporidium parvum; at EC60): 50.40%; Eon, proportion of on-parasite-target effect (Cryptosporidium parvum; at EC80): 38.60%; Eon, proportion of on-parasite-target effect (Cryptosporidium parvum; at EC90): 27.10%; TC50 (HCT-8/NC(PTX) cells): 4.15 µM; Pct change of TC50 (vs NC) (HCT-8/MDR1(PTX) cells): 140.3%
CC(=O)O[C@H]1C(=O)[C@@]2(C)[C@H]([C@H](OC(=O)c3ccccc3)[C@]3(O)C[C@H](OC(=O)[C@H](O)[C@@H](NC(=O)c4ccccc4)c4ccccc4)C(C)=C1C3(C)C)[C@]1(OC(C)=O)CO[C@@H]1C[C@@H]2O [Paclitaxel]	20.22	6.54	6.52	6.51	-1.2	100% on-target	-4.20	-3.30	-2.60	-2.10	−1.5	-1.00	0.30	1.50	16.03	21.94	12.75	12.51	12.73	12.37	Eoff, proportion of off-parasite-target effect (Cryptosporidium parvum; at EC70): -0.40%; Calculated cytotoxicity at EC50 (HCT-8/WT cells; percent inhibition of WT host cell growth at the EC50 concentration, calculated with Eq 5 from k and h): 1.92%; TC50 (HCT-8/MDR1(PTX) cells; after selection by PTX): 45.86 µM; Pct change of TC50 (vs NC) (HCT-8/MDR1(PTX) cells): 270.7%
COc1cccc2c1C(=O)c1c(O)c3c(c(O)c1C2=O)C[C@@](O)(C(C)=O)C[C@@H]3O[C@H]1C[C@H](N)[C@H](O)[C@H](C)O1 [Daunorubicin, Daunorubicin HCl]	3.95														3.88	3.93	3.91	4.09	3.85	4.16	Fold change of TC50 MDR1/NC (HCT-8/MDR1 cells; ratio of TC50, MDR1 vs NC cells): 0.95; Fold change of TC50 WT(PTX) vs. WT (HCT-8/WT(PTX) cells): 0.99; Fold change of TC50 NC(PTX) vs. NC (HCT-8/NC(PTX) cells): 0.97; TC50 (HCT-8/NC(PTX) cells): 4.05 µM; Fold increase of TC50 MDR1(NTZ) vs. NC (HCT-8/MDR1(NTZ) cells; after selection by NTZ): 0.94; Fold increase of TC50 MDR1(NTZ) vs. MDR1 (HCT-8/MDR1(NTZ) cells; after selection by NTZ vs parent cell line): 0.99; TC50 (HCT-8/MDR1(PTX) cells; after selection by PTX): 10.23 µM; Fold change of TC50 MDR1(PTX) vs. NC (HCT-8/MDR1(PTX) cells; after selection by PTX): 2.46; Fold change of TC50 MDR1(PTX) vs. MDR1 (HCT-8/MDR1(PTX) cells; after selection by PTX vs parent cell line): 2.59; Fold change of TC50 MDR1(PTX)/NC(PTX) (HCT-8/MDR1(PTX) cells; ratio of TC50): 2.53; Fold increase of TC50 WT(NTZ) vs. WT (HCT-8/WT(NTZ) cells): 1.05; Fold increase of TC50 NC(NTZ) vs. NC (HCT-8/NC(NTZ) cells): 0.93
